Marks after values point to notes of the source that are not given here.
Test system: BCA atherosclerosis lesions in LDLr KO mice
Experiment: LDLr KO mouse brachiocephalic arch atherosclerosis model
Type: in vivo
Conditions: for Lesion area: 4 weeks, vehicle 50,686; for Macrophage area (brown color): vehicle 18,571; for reduction of lesion area compared to vehicle / reduction of BCA cholesteryl ester (CE) content compared to vehicle: Table 3; for Cholesteryl ester: BCA, vehicle 22.50
Protocol: The compound of Example 2 is tested in the low density lipoprotein (LDL) receptor knock-out (LDLr KO) mouse model of atherosclerosis. Mice deficient in the ability to encode and synthesize the LDL receptor (LDLr KO) are hypercholesterolemic, especially when maintained on high cholesterol diet, Ishibashi et al. J. Clin. Invest. (1994), 93: 1885-1893. In the large arteries, LDLr KO mice develop spontaneous atherosclerotic lesions that mimic major features of the cellular, lipid, and extracellular matrix composition of human lesions. An important constituent of both human and mouse lesions is the lipid-laden macrophage or “foam cell” in the arterial subendothelium. The esterified cholesterol stored by macrophages is a surrogate for lesion development. Assay of esterified cholesterol directly from mouse arterial tissue (by LC/MS) provides a rapid index of lesion burden. The LDLr KO model used in the present study takes advantage of the rapid development of mature atherosclerotic plaques in the brachiocephalic artery (BCA). Primary endpoints for the study are arterial cholesteryl ester content and lesion dimensions obtained by light microscopic measurement of lesions in serial cross-sections of the artery.
LDLr KO mice (JAX #002207), 7 week old males, were obtained from The Jackson Laboratory (Bar Harbor, Me.). Upon arrival at the testing facility and continuing for a total of 10 weeks, mice were housed individually and fed the atherogenic diet TD.88137 (Teklad) ad libitum. During the first 6 weeks, the mice rested undisturbed in their cages. During the last 4 weeks, the mice received the test compound twice daily by oral gavage.

## CCCc1c(NC(=O)CC(C)(C)C(=O)[O-])cccc1OCCCOc1cc(O)c(-c2ccc(F)cc2)cc1CC.[Na+] [Example 2, Sodium 4-[[3-[3-[2-ethyl-4-(4-fluorophenyl)-5-hydroxy-phenoxy]propoxy]-2-propyl-phenyl]amino]-2,2-dimethyl-4-oxo-butanoate]
3 mg/kg BID oral gavage
  Lesion area: 23700 µm²
3 mg/kg BID, p < 0.02
  Macrophage area vs. vehicle: −65%*
3 mg/kg BID, p < 0.049
  Lesion area vs. vehicle: −53%*
3 mg/kg BID, p = NS
  Cholesteryl ester vs. vehicle: −8%
3 mg/kg BID
  Macrophage area (brown color): 6520 µm²
  Cholesteryl ester: 17.95 nmol
3 mg/kg b.i.d.
  reduction of lesion area compared to vehicle: 53%
10 mg/kg BID oral gavage
  Lesion area: 21200 µm²
10 mg/kg BID, p < 0.002
  Macrophage area vs. vehicle: −84%*
10 mg/kg BID, p < 0.034
  Lesion area vs. vehicle: −58%*
10 mg/kg BID, p < 0.09
  Cholesteryl ester vs. vehicle: −18%
10 mg/kg BID
  Macrophage area (brown color): 2860 µm²
  Cholesteryl ester: 16.97 nmol
10 mg/kg b.i.d., p<0.09
  reduction of BCA cholesteryl ester (CE) content compared to vehicle: 18%
10 mg/kg b.i.d.
  reduction of lesion area compared to vehicle: 58%
30 mg/kg BID oral gavage
  Lesion area: 17100 µm²
30 mg/kg BID, p < 0.017
  Lesion area vs. vehicle: −66%*
30 mg/kg BID, p < 0.04
  Cholesteryl ester vs. vehicle: −23%*
30 mg/kg BID, p < 0.09
  Macrophage area vs. vehicle: −54%
30 mg/kg BID
  Macrophage area (brown color): 8520 µm²
  Cholesteryl ester: 14.51 nmol
30 mg/kg b.i.d., p<0.04
  reduction of BCA cholesteryl ester (CE) content compared to vehicle: 23%
30 mg/kg oral b.i.d., p<0.017
  reduction of lesion area compared to vehicle: 66%

Reference: patent publication US9187411B2, “Leukotriene B4 antagonist compound” (Eli Lilly and Company, priority 2012, dated 2015)
